US8426386B2, “NK1 receptor antagonist composition” (Lion Corporation, priority 2006, dated 2013)

Test system: NK1 receptor
Assay: NK1 Receptor Antagonism Assay (calcium imaging, substance P stimulation)
Format: cell-based, human
Settings: for Efficacy (NK1 receptor antagonistic activity grade): substance P 100 μM; for effect as the NK1 receptor antagonist (in words): summary of Table 1
Excerpt: [Performance Evaluation Test] NK1 Receptor Antagonism Assay
In this test, maltose, maltotriose, maltotetraose, maltopentaose, maltohexaose and maltoheptaose were purchased from SIGMA, isomaltose, isomaltotriose, isomaltotetraose, isomaltopentaose, isomaltohexaose and isomaltoheptaose were purchased from Seikagaku Corporation, and four types of oligosaccharides-1-kestose, fructofranosylnystose, nystose and galactotetraose—were purchased from Wako Pure Chemicals Industries Ltd. Each oligosaccharide was diluted with saline, and used.
In order to transiently express a cloned human NK1 receptor in HEK293, cDNA of the human NK1 receptor was cut out from pCDM8 (Invitrogen), and cloned in an expression vector pCDM9 derived by inserting an ampicillin resistant gene (BLUESCRIPT, nucleotides 1973 to 2964 from SK+) at a SacII site.
HEK293 cells were seeded at 1×10^5 cells in a Falcon dish (diameter: 3.5 cm) using α-MEM medium (Gibco) containing 10% bovine fetal serum, and cultured in a 5% CO2 incubator at 37° C. overnight. Then, 20 μg of the expression vector was transfected using Transfection Reagent FuGENE6 (Roche) according to attached instructions, and the transfectants were incubated at 37° C. for 3 days and assayed by a calcium imaging method.
According to Renganathan et al's method (Renganathan M et al., J. Neurophysiol., 84(2), […] (2000)), nerve cells were dispersed and isolated from spinal dorsal root ganglion in a wild type mouse, and 1×10^5 thereof were seeded in a 24-well plate coated with poly-L-lysine. The cells were cultured in 90% DMEM medium (GIBCO) supplemented with 10% bovine fetal serum, 2 mM glutamine, 100 U/mL of penicillin/streptomycin, 100 ng/mL of NGF (SIGMA) and 5 μM cytosine arabinoside (SIGMA) under 5% CO2 at 37° C. The cells were cultured for 1 to 3 weeks, and subsequently subjected to a calcium imaging analysis. A half of the nerve cells was identified to be positive for the NK1 receptor by staining the nerve cells derived from spinal dorsal root ganglion in the wild type mouse with an anti-NK1 receptor antibody (supplied from CHEMICON International).
The cells which express the NK1 receptor transiently or constitutively were subjected to measurement using a high resolution digital B/W cooling CCD camera (ORCA supplied from Hamamatsu Photonics K.K.), and their images were analyzed using an analysis software (AQUA COSMOS supplied from Hamamatsu Photonics K.K.). When the cells were labeled for calcium, Fluo4-AM (supplied from Molecular Probe) was used as a calcium sensitive dye. Fifty μg of Fluo4-AM was dissolved in 400 μL of DMSO in a vial, 4 μL of Pluronic F-127 (Molecular Probe) was added and mixed, and then 4 mL of OPTI-MEM (GIBCO) was added thereto. The calcium sensitive dye solution thus prepared was added to the cells, which were then incubated at 37° C. for 60 minutes. An agonist, an antagonist and samples to be evaluated were prepared at concentrations which were 10 times higher than assay concentrations, and analyzed by adding a one tenth volume of the cell suspension upon analysis. All reagents and an assay temperature were kept at 37° C. For the cells transfected transiently, YFP reporter DNA fluorescence (excitation: 490 nm) was used for identifying the transfected cells. Upon measurement, a fluorescence intensity obtained by initially imaging the untreated cells was made an initial value. After passing one minute, a change of calcium/fluorescence intensity in the sample to be evaluated at the desired concentration was monitored with an interval of one second before and after the addition (2 to 5 minutes). Subsequently, substance P was added, and immediately after (2 to 5 minutes), an antagonistic activity of the sample to be evaluated was determined by monitoring the change of intracellular calcium concentrations as the change of the fluorescence intensities with the interval of one second. […]

[1] = evaluated concentration 0.1 ppm
[2] = evaluated concentration 100 ppm
[3] = evaluated concentration 1000 ppm

Row | efficacy at a low concentration (in words) (0.1 ppm) | Compound | Efficacy (NK1 receptor antagonistic activity grade) [1] | Efficacy (NK1 receptor antagonistic activity grade) (evaluated concentration 1 ppm) | Efficacy (NK1 receptor antagonistic activity grade) (evaluated concentration 10 ppm) | Efficacy (NK1 receptor antagonistic activity grade) [2] | Efficacy (NK1 receptor antagonistic activity grade) [3] | effect as the NK1 receptor antagonist (in words)
1 |  | OC[C@H]1O[C@H](O[C@H]2[C@H](O)[C@@H](O)C(O)O[C@@H]2CO)[C@H](O)[C@@H](O)[C@@H]1O (mixture of isomers) [Maltose, maltose] | D (Ineffective: the antagonistic activity was less than 65%, or the stimulating or agonistic activity of the sample was strong.) | D (Ineffective: the antagonistic activity was less than 65%, or the stimulating or agonistic activity of the sample was strong.) | C (Slightly effective: the antagonistic activity was less than 65%, and a stimulating or agonistic activity of the sample was weak.) | C (Slightly effective: the antagonistic activity was less than 65%, and a stimulating or agonistic activity of the sample was weak.) | B (Effective: the antagonistic activity was 65% or more and less than 75% and the more excellent performance than in the positive control was shown.) | high effect
2 |  | OC[C@H]1O[C@@](CO)(OC[C@@]2(O[C@H]3O[C@H](CO)[C@@H](O)[C@H](O)[C@H]3O)O[C@H](CO)[C@@H](O)[C@@H]2O)[C@@H](O)[C@@H]1O [Example 1-Kestose, 1-kestose, reference compound] |  |  |  |  | D (Ineffective: the antagonistic activity was less than 65%, or the stimulating or agonistic activity of the sample was strong.) | no NK1 receptor antagonistic activity was observed at all
3 |  | OC[C@H]1O[C@@](CO)(OC[C@@]2(OC[C@@]3(OC[C@@]4(O[C@H]5O[C@H](CO)[C@@H](O)[C@H](O)[C@H]5O)O[C@H](CO)[C@@H](O)[C@@H]4O)O[C@H](CO)[C@@H](O)[C@@H]3O)O[C@H](CO)[C@@H](O)[C@@H]2O)[C@@H](O)[C@@H]1O [Fructofranosylnystose, fructofranosylnystose, reference compound] |  |  |  |  | D (Ineffective: the antagonistic activity was less than 65%, or the stimulating or agonistic activity of the sample was strong.) | no NK1 receptor antagonistic activity was observed at all
4 |  | OC[C@H]1O[C@@H](O[C@@H]2[C@H](O)[C@@H](O)[C@H](O[C@@H]3[C@H](O)[C@@H](O)[C@H](O[C@@H]4[C@H](O)[C@@H](O)C(O)O[C@@H]4CO)O[C@@H]3CO)O[C@@H]2CO)[C@H](O)[C@@H](O)[C@H]1O (stereo partly shown) [Galactotetraose, galactotetraose, reference compound] |  |  |  |  | D (Ineffective: the antagonistic activity was less than 65%, or the stimulating or agonistic activity of the sample was strong.) | no NK1 receptor antagonistic activity was observed at all
5 |  | OC[C@H]1O[C@H](OC[C@H]2O[C@H](OC[C@H]3O[C@H](OC[C@H]4O[C@H](OC[C@H]5O[C@H](OC[C@H]6O[C@H](OC[C@H]7OC(O)[C@H](O)[C@@H](O)[C@@H]7O)[C@H](O)[C@@H](O)[C@@H]6O)[C@H](O)[C@@H](O)[C@@H]5O)[C@H](O)[C@@H](O)[C@@H]4O)[C@H](O)[C@@H](O)[C@@H]3O)[C@H](O)[C@@H](O)[C@@H]2O)[C@H](O)[C@@H](O)[C@@H]1O (stereo partly shown) [Isomaltoheptaose, isomaltoheptaose, reference compound] |  |  |  |  | D (Ineffective: the antagonistic activity was less than 65%, or the stimulating or agonistic activity of the sample was strong.) | no NK1 receptor antagonistic activity was observed at all
6 |  | OC[C@H]1O[C@H](OC[C@H]2O[C@H](OC[C@H]3O[C@H](OC[C@H]4O[C@H](OC[C@H]5O[C@H](OC[C@H]6OC(O)[C@H](O)[C@@H](O)[C@@H]6O)[C@H](O)[C@@H](O)[C@@H]5O)[C@H](O)[C@@H](O)[C@@H]4O)[C@H](O)[C@@H](O)[C@@H]3O)[C@H](O)[C@@H](O)[C@@H]2O)[C@H](O)[C@@H](O)[C@@H]1O (stereo partly shown) [Isomaltohexaose, isomaltohexaose, reference compound] |  |  |  |  | D (Ineffective: the antagonistic activity was less than 65%, or the stimulating or agonistic activity of the sample was strong.) | no NK1 receptor antagonistic activity was observed at all
7 |  | OC[C@H]1O[C@H](OC[C@H]2O[C@H](OC[C@H]3O[C@H](OC[C@H]4O[C@H](OC[C@H]5OC(O)[C@H](O)[C@@H](O)[C@@H]5O)[C@H](O)[C@@H](O)[C@@H]4O)[C@H](O)[C@@H](O)[C@@H]3O)[C@H](O)[C@@H](O)[C@@H]2O)[C@H](O)[C@@H](O)[C@@H]1O (stereo partly shown) [Isomaltopentaose, isomaltopentaose, reference compound] |  |  |  |  | D (Ineffective: the antagonistic activity was less than 65%, or the stimulating or agonistic activity of the sample was strong.) | no NK1 receptor antagonistic activity was observed at all
8 |  | OC[C@H]1O[C@H](OC[C@H]2OC(O)[C@H](O)[C@@H](O)[C@@H]2O)[C@H](O)[C@@H](O)[C@@H]1O (stereo partly shown) [Isomaltose, isomaltose, reference compound] |  |  |  |  | D (Ineffective: the antagonistic activity was less than 65%, or the stimulating or agonistic activity of the sample was strong.) | no NK1 receptor antagonistic activity was observed at all
9 |  | OC[C@H]1O[C@H](OC[C@H]2O[C@H](OC[C@H]3O[C@H](OC[C@H]4OC(O)[C@H](O)[C@@H](O)[C@@H]4O)[C@H](O)[C@@H](O)[C@@H]3O)[C@H](O)[C@@H](O)[C@@H]2O)[C@H](O)[C@@H](O)[C@@H]1O (stereo partly shown) [Isomaltotetraose, isomaltotetraose, reference compound] |  |  |  |  | D (Ineffective: the antagonistic activity was less than 65%, or the stimulating or agonistic activity of the sample was strong.) | no NK1 receptor antagonistic activity was observed at all
10 |  | OC[C@H]1O[C@H](OC[C@H]2O[C@H](OC[C@H]3OC(O)[C@H](O)[C@@H](O)[C@@H]3O)[C@H](O)[C@@H](O)[C@@H]2O)[C@H](O)[C@@H](O)[C@@H]1O (stereo partly shown) [Isomaltotriose, isomaltotriose, reference compound] |  |  |  |  | D (Ineffective: the antagonistic activity was less than 65%, or the stimulating or agonistic activity of the sample was strong.) | no NK1 receptor antagonistic activity was observed at all
11 | high efficacy | OC[C@H]1O[C@H](O[C@H]2[C@H](O)[C@@H](O)[C@@H](O[C@H]3[C@H](O)[C@@H](O)[C@@H](O[C@H]4[C@H](O)[C@@H](O)C(O)O[C@@H]4CO)O[C@@H]3CO)O[C@@H]2CO)[C@H](O)[C@@H](O)[C@@H]1O (stereo partly shown) [Maltotetraose, maltotetraose] | B (Effective: the antagonistic activity was 65% or more and less than 75% and the more excellent performance than in the positive control was shown.) | A (Complete response: the antagonistic activity was 75% or more and much more excellent performance than in the positive control was shown.) | A (Complete response: the antagonistic activity was 75% or more and much more excellent performance than in the positive control was shown.) | A (Complete response: the antagonistic activity was 75% or more and much more excellent performance than in the positive control was shown.) | A (Complete response: the antagonistic activity was 75% or more and much more excellent performance than in the positive control was shown.) | high effect
